Source: patent US8791258B2, “Pro-fluorescent probes” (The Regents of the University of California, priority 2008, dated 2014)

Columns and labels:
[1] = Kinetics of H2O2-mediated boronate deprotection; conditions: pseudo-first-order conditions, 5 μM dye, 10 mM H2O2
Procedure: (§1) MitoPY1 features two major visible region absorptions (λabs=489 nm, ε=14,300 M^−1 cm^−1; 510 nm, ε=14,200 M^−1 cm^−1) and a weak emission (λ=540 nm, Φ=0.019, FIG. S1) in 20 mM HEPES, pH 7. […] Kinetics measurements of the H2O2-mediated boronate deprotection were performed under pseudo-first-order conditions (5 μM dye, 10 mM H2O2), giving an observed rate constant of k=2.0(1)×10^−3 s^−1.

[2] = Turn-on fluorescence responses to a panel of biologically relevant ROS; conditions: 20 mM HEPES, pH 7, 25° C.
Procedure: Bars represent relative responses at 0, 5, 15, 30, 45, and 60 min after addition of each ROS. Data shown are for 10 mM O2- (with 10 μM catalase), 200 μM NO, and 100 μM for all other ROS. Data were acquired at 25° C. in 20 mM HEPES, pH 7, with excitation at λ=510 nm and emission collected between 518 and 750 nm.
as §1

[3] = Absorption and emission properties, fluorescence quantum yield; assay type: physicochemical; conditions: 20 mM HEPES, pH 7
Procedure: (§2) Millipore water was used to prepare all aqueous solutions. All spectroscopic measurements were performed in 20 mM HEPES buffer, pH 7. Absorption spectra were recorded using a Varian Cary 50 spectrophotometer (Walnut Creek, Calif.). Fluorescence spectra were recorded using a Photon Technology International Quanta Master 4 L-format scanning spectrofluorometer (Lawrenceville, N.J.) equipped with an LPS-220B 75-W xenon lamp and power supply, A-1010B lamp housing with integrated igniter, switchable 814 photon-counting/analog photomultiplier detection unit, and MD5020 motor driver. Samples for absorption and fluorescence measurements were contained in 1-cm×1-cm quartz cuvettes (1.4- or 3.5-mL volume, Starna, Atascadero, Calif.).
as §2, with “recorded on” for “recorded using”, “Creek, Calif.) and fluorescence” for “Creek, Calif.). Fluorescence”, “and emission” for “and fluorescence”, “cuvettes (1.5-mL” for “cuvettes (1.4- or 3.5-mL”, “Calif.). Fluorescence quantum yields were determined by reference to fluorescein in 0.1M NaOH (Φ=0.95).” for “Calif.).”

HeLa cells [4] = assay type: cell-based
Procedure: 100 μM H2O2 was then added to one of the petri dishes. At 20 minutes, 50 nM MitoTracker Deep Red, 500 nM Lysotracker Red, and 1 μM Hoechst 33342 were added to both dishes. After an additional 20 minutes (40 minute stimulation total), the two coverslips were put in a single, new petri dish filled with fresh DPBS and confocal images were taken (3.2 μsec pixel time, 100% laser power for 514 line, 4.1% laser power for the 633 line, 26% laser power for the 543 line, scanned using 12-bit multi-track scan mode using a constant receiver gain). Shown above are signals from MitoPY1 (a), MitoTracker Deep Red (b), LysoTracker Red (c), an overlay of MitoTracker Deep Red and MitoPY1 (d), Hoechst (e), and a brightfield image (f) of cells not treated with H2O2, as well as signals from MitoPY1 (g), MitoTracker Deep Red (h), LysoTracker Red (i), an overlay of MitoTracker Deep Red and MitoPY1 (j), Hoechst (k), and a brightfield image (l) of cells treated with H2O2. A 20 μm scale bar shown for all images.
HeLa cells incubated with 5 μM MitoPY1 for 60 min at 37° C. and imaged with MitoPY1 (a), MitoTracker Red and Hoechst (overlay, b), and MitoPY1 with MitoTracker Red (overlay, c). HeLa cells incubated with 5 μM MitoPY1 for 60 min at 37° C. with 100 μM H2O2 added for the final 40 min and imaged with MitoPY1 (d), MitoTracker Red and Hoechst (overlay, e), MitoPY1 and MitoTracker Red (overlay, f), and brightfield (g) with 20 μm scale bar. HeLa cells incubated with 5 μM MitoPY1 for 60 min at 37° C. and imaged with MitoPY1 (h), MitoTracker Red and Hoechst (overlay, i), and MitoPY1 with MitoTracker Red (overlay, j). HeLa cells incubated for 24 h with 1 mM paraquat, then washed and incubated with 5 μM MitoPY1 for 60 min at 37° C. and imaged with MitoPY1 (k), MitoTracker Red and Hoechst (overlay, l), MitoPY1 and MitoTracker Red (overlay, m), and brightfield (n) with 20 μm scale bar.
HEK293 cells were cultured in DMEM (Invitrogen) supplemented with 10% fetal bovine serum (FBS, Hyclone) and glutamine (2 mM). CHO.K1 cells were cultured in DMEM with F-12 supplements, glutamax (Invitrogen), and 5% FBS. Cos-7 cells were cultured in DMEM with high glucose, glutamax, 10% FBS, and non-essential amino acids (Invitrogen). HeLa cells were cultured in DMEM with high glucose, glutamax, and 10% FBS. Two days before imaging, cells were passaged and plated on 18-mm glass coverslips. For all experiments, solutions of dyes (from 5 mM stocks in DMSO) were made in DBPS with calcium chloride and magnesium chloride (Sigma). H2O2 was added by bath application to the medium from a 100 mM aqueous stock. For paraquat treatment, HeLa cells were cultured as described above. One day prior to imaging, 1 mM paraquat was added to cells from a 0.5 M stock solution in water. An equal amount of water was added to control cells at the same time. Cells were then incubated at 37° C., 5% CO2. After 24 hours, the media was exchanged for DPBS with 5 μM dye and incubated for 1 hour.
Confocal fluorescence imaging studies were performed with a Zeiss LSM510 NLO Axiovert 200 laser scanning microscope and a 63× Achroplan IR water-immersion objective lens. Excitation of PY-loaded cells at 510 nm was carried out with an Ar laser and emission was collected using a META detector between 527-580 nm. MitoTracker Deep Red was excited with a 633-nm line and emission was collected between 666-698 nm. LysoTracker Red was excited with a 543-nm line and emission was collected between 580-644 nm. Excitation of Hoechst 33342 was carried out using a MaiTai two-photon laser at 780-nm pulses (mode-locked Ti:sapphire laser, Tsunami Spectra Physics) and emission was collected between 452-537 nm. Image analysis was performed in Adobe Photoshop.
MitoPY1 was tested for its ability to both target the mitochondria and respond to H2O2 in living biological systems. […] Again, co-staining with MitoTracker confirms that the dye is retained in the mitochondria and detects localized rises in H2O2 concentrations.

HeLa cells [5] = conditions: cited from earlier work

Row | Structure (SMILES) | observed rate constant k of H2O2-mediated boronate deprotection [1] | selectivity of turn-on response for H2O2 over other ROS [2] | fluorescence quantum yield Φ ([3]; by reference to fluorescein) | extinction coefficient ε at 489 nm ([3]; λabs 489 nm) | extinction coefficient ε at 510 nm ([3]; λabs 510 nm) | cell viability during imaging (HeLa cells [4]) | fluorescence of probe-loaded cells without H2O2 (HeLa cells [4]; 5 μM probe, 1 h at 37° C.) | subcellular localization (co-staining with MitoTracker Deep Red, LysoTracker Red) (HeLa cells [4]; 5 μM probe, 50 nM MitoTracker Deep Red, 500 nM LysoTracker Red) | fluorescence after addition of H2O2 compared to control cells (HeLa cells [4]; 100 μM H2O2) | detection of endogenous mitochondrial H2O2 in paraquat-treated cells (HeLa cells [4]; 1 mM paraquat 24 h, then 5 μM probe, compared to control cells) | IC50 (HeLa cells [5])
1 | CC1(C)OB(c2ccc3c(c2)Oc2cc(N4CCN(CCCC[P+](c5ccccc5)(c5ccccc5)c5ccccc5)CC4)ccc2C32OC(=O)c3ccccc32)OC1(C)C.[I-] (centres unmarked) [MitoPY1] | 2.0(1)×10^−3 s^−1 | selective for H2O2 over ROS like superoxide, nitric oxide, and hydroxyl radical | 0.019 | 14,300 M^−1 cm^−1 | 14,200 M^−1 cm^−1 | cells are viable throughout the imaging experiments | faint but measurable levels of fluorescence | localized to the mitochondria | marked localized increase in fluorescence | clear increases in mitochondrial-localized H2O2 levels | 
2 | C[n+]1ccc(-c2cc[n+](C)cc2)cc1 [paraquat] |  |  |  |  |  |  |  |  |  |  | 1020 µM
